Reference: PubChem BioAssay (NCI)
Where “and” joins values, the source holds several entries; their conditions need not be identical. Equal entries are not always repeated.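 Five compound concentrations were applied to cells in 96-well plates for 48 hours; endpoints were derived by simple linear interpolation of the resulting dose-response curve. At the GI50, growth is halved. TGI is the concentration that stops growth completely.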

How the values were obtained:
Test in all cases: NCI-60 cell line screen, 48 h
SF-539 CNS = system: SF-539 CNS
SK-MEL-5 melanoma = system: SK-MEL-5 melanoma
HS 578T breast = system: HS 578T breast
MOLT-4 leukemia = system: MOLT-4 leukemia
MALME-3M melanoma = system: MALME-3M melanoma
HT29 colon = system: HT29 colon
786-0 renal = system: 786-0 renal
OVCAR-4 ovarian = system: OVCAR-4 ovarian
NCI-H23 lung = system: NCI-H23 lung
ACHN renal = system: ACHN renal

Compound | GI50 (SF-539 CNS) | TGI (SF-539 CNS) | GI50 (SK-MEL-5 melanoma) [µM] | TGI (SK-MEL-5 melanoma) | GI50 (HS 578T breast) | TGI (HS 578T breast) | GI50 (MOLT-4 leukemia) [µM] | TGI (MOLT-4 leukemia) | GI50 (MALME-3M melanoma) | TGI (MALME-3M melanoma) | GI50 (HT29 colon) | TGI (HT29 colon) | GI50 (786-0 renal) | TGI (786-0 renal) | GI50 (OVCAR-4 ovarian) [µM] | TGI (OVCAR-4 ovarian) | GI50 (NCI-H23 lung) [µM] | TGI (NCI-H23 lung) | GI50 (ACHN renal) | TGI (ACHN renal) [µM]
CCCCCn1sc(=O)n(Cc2ccc(CNC(=O)C(C)c3ccc(CC(C)C)cc3)cc2)c1=O (stereo not drawn) | 1.19 µM | 2.44 µM | 1.61 | 2.96 µM | 1.56 µM | 4.36 µM | 0.848 | > 22.5 µM | 1.43 µM | 2.8 µM | 0.949 µM | 2.55 µM | 0.747 µM | 2.06 µM | 0.999 | 2.42 µM | 1.45 | 2.96 µM | 0.498 µM | 1.73
COc1cc(/C=N\Nc2ccccc2)ccc1OC(=O)c1ccccc1 | 0.486 µM | 2.22 µM | 1.53 | 18.9 µM | 18 µM | > 100 µM | 1.94 | > 100 µM | 7.55 µM | > 100 µM | 3.72 µM | 17.7 µM | 5.09 µM | > 100 µM | 8.21 | > 100 µM | 15.8 | > 100 µM | 0.675 µM | > 100
OC[C@H]1C[C@](O)(c2ccccc2Cl)[C@@H](c2ccccc2Cl)O1 | 22.4 µM | 50.7 µM | 17.1 | 31.6 µM | 16.3 µM | 38.4 µM | 17.1 | 51.4 µM | 21.6 µM | 51.4 µM | 17.2 µM | 42.1 µM | 26.1 µM | 68.5 µM | 24.3 | 99.2 µM | 25.9 | 74.2 µM | 27.4 µM | 91.2
ClC/C=C/CSc1ncnc2nc[nH]c12 | > 100 µM | > 100 µM | > 100 | > 100 µM | > 100 µM | > 100 µM | > 100 | > 100 µM | > 100 µM | > 100 µM | > 100 µM | > 100 µM | > 100 µM | > 100 µM | > 100 | > 100 µM | > 100 | > 100 µM | > 100 µM | > 100
C=C1C(C)C2C(Cc3ccccc3)NC(=O)C23C(OC(C)=O)C=CC(C)(O)C(=O)C(C)C/C=C/C3C1O (stereo not drawn) | 0.208 µM | 2.77 µM and 1.22 µM | 2.17 | – | 0.0185 µM and 0.0551 µM | 2.07 µM and 1.18 µM | 17.9 | 78.3 µM and > 500 µM | 61.7 µM | > 96.7 µM and 489 µM | 0.0505 µM and 0.176 µM and 0.0663 µM | > 278 µM | 2.05 µM | 56.2 µM and > 120 µM | 10.4 | 99.8 µM and > 500 µM | 15.6 | 82.2 µM and 259 µM | 1.28 µM | > 196
CC1(C)C2CC(=O)C1(C)C(OCc1ccccc1)C2Br (stereo not drawn) | 25.9 µM and > 100 µM | 68.4 µM and > 100 µM | – | 29.3 µM and > 100 µM | 13.4 µM | 68.2 µM and 58.8 µM | – | 51.2 µM and 49.9 µM | 19.1 µM and 48.6 µM | 36.9 µM and > 100 µM | – | 32.2 µM and 71.3 µM | 46.5 µM and > 100 µM | > 100 µM | – | – | – | 76.3 µM and > 100 µM | 38.5 µM and 93.9 µM | > 100
